# Experimental data from the supplement of paper PMC10307832.
# Columns and labels:
# Assay in all cases: relative viability (nuclei count vs DMSO), 5 days (fraction); higher = more cells survive
# Dasatinib + Foretinib = compound: Cc1nc(Nc2ncc(C(=O)Nc3c(C)cccc3Cl)s2)cc(N2CCN(CCO)CC2)n1 [Dasatinib] + COc1cc2c(Oc3ccc(NC(=O)C4(C(=O)Nc5ccc(F)cc5)CC4)cc3F)ccnc2cc1OCCCN1CCOCC1 [Foretinib] (partner 0.25 µM)
# Outline: (§1)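 For relative viability, nuclei counts in treated wells were divided by those in vehicle wells. Lung cancer cell lines had been pin-tool dosed in 1536-well plates the day after seeding and cultured for 5 days, then fixed and stained in one step (final 0.05% Triton X-100, 1% formaldehyde, 1 ug/ml Hoechst) and imaged at 4×. Doses were one drug alone or a fixed anchor-drug dose plus five library-drug doses (not always all listed) in √10 steps, and values are duplicate-plate medians.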
# ALW-II-49-7 + Crizotinib = compound: Cc1ccc(C(=O)Nc2cccc(C(F)(F)F)c2)cc1Nc1cncc(C(N)=O)c1 [ALW-II-49-7] + C[C@@H](Oc1cc(-c2cnn(C3CCNCC3)c2)cnc1N)c1c(Cl)ccc(F)c1Cl [Crizotinib] (partner 1 µM)
# Outline: as §1
# [1] = compound: Cc1ccc(C(=O)Nc2cccc(C(F)(F)F)c2)cc1Nc1cncc(C(N)=O)c1 [ALW-II-49-7] + CC(=O)c1c(C)c2cnc(Nc3ccc(N4CCNCC4)cn3)nc2n(C2CCCC2)c1=O [Palbociclib] (partner 0.5 µM)
# Outline: as §1
# XMD13-2 + Phenformin = compound: C1CC1C(=O)NC2=NNC3=C2C=CC(=C3)C4=CC(=CC=C4)C(=O)NC5CC5 [XMD13-2] + N=C(N)NC(=N)NCCc1ccccc1 [Phenformin] (partner 250 µM)
# Outline: as §1
Cell Line,relative viability (Dasatinib + Foretinib; first compound 0.005 µM),relative viability (Dasatinib + Foretinib; first compound 0.01581 µM),relative viability (Dasatinib + Foretinib; first compound 0.05 µM),relative viability (Dasatinib + Foretinib; first compound 0.1581 µM),relative viability (Dasatinib + Foretinib; first compound 0.5 µM),relative viability (ALW-II-49-7 + Crizotinib; first compound 0.08 µM),relative viability (ALW-II-49-7 + Crizotinib; first compound 0.253 µM),relative viability (ALW-II-49-7 + Crizotinib; first compound 0.8 µM),relative viability (ALW-II-49-7 + Crizotinib; first compound 2.53 µM),relative viability (ALW-II-49-7 + Crizotinib; first compound 8 µM),relative viability ([1]; first compound 0.08 µM),relative viability ([1]; first compound 0.253 µM),relative viability ([1]; first compound 0.8 µM),relative viability ([1]; first compound 2.53 µM),relative viability ([1]; first compound 8 µM),relative viability (XMD13-2 + Phenformin; first compound 0.05 µM),relative viability (XMD13-2 + Phenformin; first compound 0.1581 µM),relative viability (XMD13-2 + Phenformin; first compound 0.5 µM),relative viability (XMD13-2 + Phenformin; first compound 1.581 µM),relative viability (XMD13-2 + Phenformin; first compound 5 µM)
NCI-H1734,0.743,0.613,0.586,0.427,0.367,0.787,0.642,0.614,0.762,0.651,0.293,0.376,0.355,0.319,0.296,0.463,0.354,0.391,0.386,0.363
NCI-H1755,0.778,0.706,0.617,0.463,0.185,0.917,0.859,0.753,0.79,0.69,0.439,0.498,0.41,0.415,0.431,0.643,0.666,0.596,0.642,0.677
NCI-H1915,1.05,0.804,0.957,0.431,0.298,0.896,0.863,0.828,0.682,0.572,0.618,0.595,0.543,0.453,0.414,0.381,0.362,0.367,0.371,0.379
NCI-H1944,0.849,0.684,0.701,0.291,0.21,1.14,0.981,1.06,1.09,1.12,0.353,0.32,0.327,0.346,0.351,0.219,0.224,0.225,0.23,0.203
